Test results taken from ChEMBL document CHEMBL1150343, “Guanidine and 2-aminoimidazoline aromatic derivatives as alpha2-adrenoceptor antagonists. 2. Exploring alkyl linkers for new antidepressants” (J Med Chem, 2008).

Assays:
[1] = Displacement of [3H]RX821002 from alpha2 adrenergic receptor in human brain prefrontal cortex tissue by liquid scintillation spectrometry; assay type: tissue-based
Rattus norvegicus [2] = assay: Increase in extracellular noradrenaline levels in Sprague-Dawley rat brain prefrontal cortex at 1 to 100 uM, locally administered by microdialysis by relative to control
Rattus norvegicus [3] = assay: Increase in extracellular noradrenaline levels in Sprague-Dawley rat brain prefrontal cortex at 10 mg/kg, ip systematically administered by microdialysis by relative to control; assay type: functional; details: route intraperitoneal
[4] = Agonist activity at alpha2 adrenergic receptor in human brain prefrontal cortex tissue by [35S]GTPgamma S binding assay; assay type: functional, tissue-based
[5] = Agonist activity at alpha2 adrenergic receptor in human brain prefrontal cortex tissue by [35S]GTPgamma S binding assay relative to UK-14304; assay type: functional

Row | Structure (SMILES) | pKi [1] | other results
1 | N=C(N)Nc1ccc2c(c1)Cc1cc(NC(=N)N)ccc1-2 | 6.12 | 
2 | N=C(N)Nc1ccc(Oc2ccccc2)cc1 | 6.05 | 
3 | Nc1ccc(NC2=NCCN2)cc1 | 6.92 | 
4 | COc1ccc(NC2=NCCN2)cc1 | 7.77 | 
5 | Cl.c1ccc(NC2=NCCN2)cc1 | 6.48 | 
6 | CCc1ccc(NC2=NCCN2)cc1.Cl | 6.68 | 
7 | Cl.N=C(N)Nc1ccc2c(c1)CCCC2 | 7.11 | Emax (Rattus norvegicus [2]): 326%; Activity (Rattus norvegicus [3]): 373%
8 | COC1(C2=NCCN2)COc2ccccc2O1 (stereo not given) | 9.04 | Emax (Rattus norvegicus [2]): 287%
9 | Cl.N=C(N)Nc1ccc(Cc2ccccc2)cc1 | 6.38 | 
10 | c1ccc2c(c1)OCC(C1=NCCN1)O2 (stereo not given) [IDAZOXAN] |  | Emax (Rattus norvegicus [2]): 235%
11 | N=C(N)Nc1ccc2c(c1)OCCO2 | 8.21 | 
12 | Cc1ccc(NC2=NCCN2)cc1C.Cl | 7.68 | EC50 [4]: 62.9 µM; Emax [5]: 89%
13 | Cc1ccc(NC(=N)N)cc1.Cl | 6.53 | 
14 | N=C(N)Nc1ccc2c(c1)OCO2 | 6.4 | 
15 | N=C(N)Nc1ccc(Sc2ccccc2)cc1 | 6.3 | 
16 | Cl.c1cc2c(cc1NC1=NCCN1)CCCC2 | 7.33 | EC50 [4]: 1.1 µM; Emax [5]: 100%
17 | N=C(N)Nc1ccc2c(c1)Cc1ccc(NC(=N)N)cc1C2 | 7.96 | 
18 | Cl.c1cc2c(cc1NC1=NCCN1)CCC2 | 8.26 | EC50 [4]: 4.4 µM; Emax [5]: 98%
19 | c1cc2c(cc1NC1=NCCN1)OCCO2 | 7.85 | 

Row | Structure (SMILES) | pKi [1] | other results
20 | c1cc2c(cc1NC1=NCCN1)Cc1ccc(NC3=NCCN3)cc1C2 | 7.58 | 
21 | Cc1ccc(NC2=NCCN2)cc1.Cl | 7.82 | EC50 [4]: 15.2 µM; Emax [5]: 97%
22 | N=C(N)Nc1ccc(Nc2ccccc2)cc1 | 6.83 | 
23 | c1ccc(Sc2ccc(NC3=NCCN3)cc2)cc1 | 6.62 | 
24 | c1cc(NC2=NCCN2)ccc1CCc1ccc(NC2=NCCN2)cc1 | 7.02 | Emax (Rattus norvegicus [2]): 255%; Activity (Rattus norvegicus [3]): 156%
25 | c1cc2c(cc1NC1=NCCN1)OCO2 | 7.33 | 
26 | c1cc2c(cc1NC1=NCCN1)Cc1cc(NC3=NCCN3)ccc1-2 | 6.32 | 
27 | Cl.N=C(N)Nc1ccc2c(c1)CCC2 | 6.51 | 
28 | CCc1ccc(NC(=N)N)cc1.Cl | 5.55 | 
29 | c1ccc(Nc2ccc(NC3=NCCN3)cc2)cc1 | 6.56 | 
30 | Cl.N=C(N)Nc1ccccc1 | 6.19 | 
31 | CSc1ccc(NC2=NCCN2)cc1 | 7.07 | 
32 | COc1ccc(NC(=N)N)cc1 | 6.39 | 
33 | N=C(N)Nc1ccc(CCc2ccc(NC(=N)N)cc2)cc1 | 5.88 | 
34 | N=C(N)Nc1ccc(N)cc1 | 5.58 | 
35 | Cl.c1ccc(Cc2ccc(NC3=NCCN3)cc2)cc1 | 6.85 | 
36 | CSc1ccc(NC(=N)N)cc1 | 6.4 | 
37 | c1ccc(Oc2ccc(NC3=NCCN3)cc2)cc1 | 6.58 | 
